In patent US20200385371A1 (Propellon Therapeutics Inc., priority 2017, published 2020):
Where two headings read alike, the source gives them in different places.

Key:
WDR5 [1] = target: T1, WDR5 (Homo sapiens, UniProt P61964); experiment: Surface Plasmon Resonance (SPR) assay; format: binding; set-up: Full length WDR5 with an N-terminal His tag and C-terminal AviTag; His tag (N); made in house; host or cells: E. coli
Protocol: Exemplary compounds of the application were dissolved in 100% DMSO at 10 mM, assayed fresh, and then stored at −20° C. for repeat studies and other experiments. Full length WDR5 with an N-terminal His tag and C-terminal AviTag (Avidity Inc.) was expressed in E. coli with coexpression of BirA to biotin label the protein in vivo. Purification was via Ni-NTA.
SPR studies were performed using a Biacore™ T200 instrument (GE Health Sciences Inc.). Biotinylated WDR5 protein (approximately 3000RU) was stably captured to streptavidin coupled SA chips according to the manufacture's protocol (GE Health Sciences Inc.). The running buffer used was HBS-EP (20 mM Hepes pH 7.4, 150 mM NaCl, 3 mM EDTA, 0.05% P-20) plus 5% DMSO with a flow rate of 40 μl/min. For SPR analysis, 5 different concentrations of each exemplary compound of the application were sprayed into 96 or 384 well plates using an HP D300 digital dispenser. The concentration ranged from about 195 nM to about 12 nM in a two-fold series. […] Curve fitting and KD calculations were performed with the Biacore T200 Evalutation software (GE Health Sciences Inc).

WDR5 [2] = target: T1, WDR5; experiment: Fluorescence Polarization (FP) binding assay
Protocol: H3 (1-15) ([…]), and 9-Ala-FAM ((Ac)-[…]-(Ahx-Ahx)-K(5,6-FAM)) (where Ahx represents 6 amino hexanoic acid linkers) peptides for WDR5 were synthesized, N-terminal-labeled with isothiocyanate-fluorescein, and purified by Tufts University Core Services (Boston, Mass.). Compound binding assays were performed at a constant labeled peptide concentration of 30 or 20 nM for H3 (1-15) and 9-Ala-FAM respectively. WDR5 concentrations of 0.3 μM for H3 (1-15) and 0.05 μM for 9-Ala-FAM were used. For both the H3 (1-15) and 9-Ala-FAM peptides, 80 mM sodium phosphate buffer (pH 6.5), 20 mM KCl, and 0.008% Triton X-100 was used. For the H3 (1-15) peptide, FP assays were measured in 10 μl aliquots in 384-well Axygen plates using a Synergy 4 microplate reader (BioTek) with an excitation wavelength of 485 nm and emission wavelength of 528 nm. For the 9-Ala-FAM peptide, FP assays were measured in 125 μl aliquots in 96 well Microfluor plates using a ViewLux instrument (Perkin Elmer) with an excitation wavelength of 480 nm and emission wavelength of 540 nm. To determine Kdsp values, the data were fit to a hyperbolic function using Sigma Plot software (Systat Software). The Kdisp values represent the average of quadruplicate measurements.

[3] = Table 2, effect of difluoro substitution, read-out: KD (SPR)

Compound | Kd (WDR5 [1]; read-out: SPR Kd) | IC50 (WDR5 [2]) | Kd (WDR5 [1]; [3])
C[C@@H]1CN(c2cc(F)c(-c3ccc(OCC4CC4)nc3)c(F)c2NC(=O)c2c[nH]c(=O)cc2C(F)(F)F)C[C@H](C)N1C [Example 1, N-(3-(6-(cycloproylmethoxy)pyridin-3-yl)-2,4-difluoro-6-((3S,5R)-3,4,5-trimethylpiperazin-1-yl)phenyl)-6-oxo-4-(trifluoromethyl)-1,6-dihydropyridine-3-carboxamide] | 0.59 nM | – | –
C[C@@H]1CN(c2cc(F)c(-c3ccnc(OCC4CC4)c3)c(F)c2NC(=O)c2c[nH]c(=O)cc2C(F)(F)F)C[C@H](C)N1C [Example 3, N-(3-(2-(cyclopropylmethoxy)pyridin-4-yl)-2,4-difluoro-6-((3S,5R)-3,4,5-trimethylpiperazin-1-yl)phenyl)-6-oxo-4-(trifluoromethyl)-1,6-dihydropyridine-3-carboxamide] | 3.39 nM | 26.6 nM | –
C[C@@H]1CN(c2cc(F)c(-c3ccc(N4CCOCC4)nc3)c(F)c2NC(=O)c2c[nH]c(=O)cc2C(F)(F)F)C[C@H](C)N1C [Example 4, N-(2,4-difluoro-3-(6-morpholinopyridin-3-yl)-6-((3S,5R)-3,4,5-trimethylpiperazin-1-yl)phenyl)-6-oxo-4-(trifluoromethyl)-1,6-dihydropyridine-3-carboxamide] | 2.02 nM | 31.8 nM | –
C[C@@H]1CN(c2cc(F)c(-c3ccc(N4CCOCC4)cc3)c(F)c2NC(=O)c2c[nH]c(=O)cc2C(F)(F)F)C[C@H](C)N1C [Example 5, N-(2,6-difluoro-4′-morpholino-4-((3S,5R)-3,4,5-trimethylpiperazin-1-yl)-[1,1′-biphenyl]-3-yl)-6-oxo-4-(trifluoromethyl)-1,6-dihydropyridine-3-carboxamide] | 3.55 nM | 32.2 nM | –
COCCOc1ccc(-c2c(F)cc(N3C[C@@H](C)N(C)[C@@H](C)C3)c(NC(=O)c3c[nH]c(=O)cc3C(F)(F)F)c2F)cn1 [Example 6, N-(2,4-difluoro-3-(6-(2-methoxyethoxy)pyridin-3-yl)-6-((3S,5R)-3,4,5-trimethylpiperazin-1-yl)phenyl)-6-oxo-4-(trifluoromethyl)-1,6-dihydropyridine-3-carboxamide] | 2.83 nM | 32.9 nM | –
C[C@@H]1CN(c2cc(F)c(-c3ccc(OCC4CC4)cc3)c(F)c2NC(=O)c2c[nH]c(=O)cc2C(F)(F)F)C[C@H](C)N1C [Example 7, N-(4′-(cyclopropylmethoxy)-2,6-difluoro-4-((3S,5R)-3,4,5-trimethylpiperazin-1-yl)-[1,1′-biphenyl]-3-yl)-6-oxo-4-(trifluoromethyl)-1,6-dihydropyridine-3-carboxamide] | – | 17.9 nM | –
C[C@@H]1CN(c2cc(F)c(-c3cnc(N4CCO[C@@H](C)C4)nc3)c(F)c2NC(=O)c2cn(C)c(=O)cc2C(F)(F)F)C[C@H](C)N1C [Example 12, N-(2,4-difluoro-3-(2-((S)-2-methylmorpholino)pyrimidin-5-yl)-6-((3S,5R)-3,4,5-trimethylpiperazin-1-yl)phenyl)-1-methyl-6-oxo-4-(trifluoromethyl)-1,6-dihydropyridine-3-carboxamide formic Acid] | 1.42 nM | 24.6 nM | –
C[C@@H]1CN(c2cc(F)c(C3=CCCN(C(=O)OC4(C)CCC4)C3)c(F)c2NC(=O)c2c[nH]c(=O)cc2C(F)(F)F)C[C@H](C)N1C [Example 14, 1-Methylcyclobutyl 5-(2,6-difluoro-3-(6-oxo-4-(trifluoromethyl)-1,6-dihydropyridine-3-carboxamido)-4-((3S,5R)-3,4,5-trimethylpiperazin-1-yl)phenyl)-3,6-dihydropyridine-1(2H)-carboxylate] | 1.88 nM | 10.2 nM | –
C[C@@H]1CN(c2cc(F)c(C3=CCCN(c4ncccn4)C3)c(F)c2NC(=O)c2c[nH]c(=O)cc2C(F)(F)F)C[C@H](C)N1C [Example 15, N-(2,4-difluoro-3-(1-(pyrimidin-2-yl)-1,2,5,6-tetrahydropyridin-3-yl)-6-((3S,5R)-3,4,5-trimethylpiperazin-1-yl)phenyl)-6-oxo-4-(trifluoromethyl)-1,6-dihydropyridine-3-carboxamide] | 1.69 nM | 21.1 nM | –
C[C@@H]1CN(c2cc(F)c(-c3cnc(N4CCO[C@@H](C)C4)nc3)c(F)c2NC(=O)c2ccc(F)cc2C(F)(F)F)C[C@H](C)N1C [Example 16, N-(2,4-difluoro-3-(2-((S)-2-methylmorpholino)pyrimidin-5-yl)-6-((3S,5R)-3,4,5-trimethylpiperazin-1-yl)phenyl)-4-fluoro-2-(trifluoromethyl)benzamide formic acid] | 1.22 nM | 6.99 nM | –
C[C@@H]1CN(c2ncc(-c3c(F)cc(N4C[C@@H](C)N(C)[C@@H](C)C4)c(NC(=O)c4cn(C)c(=O)cc4C(F)(F)F)c3F)cn2)CCO1 [Example 17, N-(2,4-difluoro-3-(2-((R)-2-methylmorpholino)pyrimidin-5-yl)-6-((3S,5R)-3,4,5-trimethylpiperazin-1-yl)phenyl)-1-methyl-6-oxo-4-(trifluoromethyl)-1,6-dihydropyridine-3-carboxamide formic acid] | 1.75 nM | 10.1 nM | –
C[C@@H]1CN(c2ncc(-c3c(F)cc(N4C[C@@H](C)N(C)[C@@H](C)C4)c(NC(=O)c4ccc(F)cc4C(F)(F)F)c3F)cn2)CCO1 [Example 18, N-(2,4-difluoro-3-(2-((R)-2-methylmorpholino)pyrimidin-5-yl)-6-((3S,5R)-3,4,5-trimethylpiperazin-1-yl)phenyl)-4-fluoro-2-(trifluoromethyl)benzamide formic acid] | 1.71 nM | 11 nM | –
C[C@@H]1CN(c2cc(F)c(C3=CCCN(C(=O)C(C)(C)C)C3)c(F)c2NC(=O)c2c[nH]c(=O)cc2C(F)(F)F)C[C@H](C)N1C [Example 19, N-(2,4-difluoro-3-(1-pivaloyl-1,2,5,6-tetrahydropyridin-3-yl)-6-((3S,5R)-3,4,5-trimethylpiperazin-1-yl)phenyl)-6-oxo-4-(trifluoromethyl)-1,6-dihydropyridine-3-carboxamide] | 5.31 nM | 31.6 nM | –
C[C@@H]1CN(c2cc(F)c(C3=CCCN(c4ncccn4)C3)c(F)c2NC(=O)c2c[nH]c(=O)cc2C(F)F)C[C@H](C)N1C [Example 21, N-(2,4-difluoro-3-(1-(pyrimidin-2-yl)-1,2,5,6-tetrahydropyridin-3-yl)-6-((3S,5R)-3,4,5-trimethylpiperazin-1-yl)phenyl)-4-(difluoromethyl)-6-oxo-1,6-dihydropyridine-3-carboxamide] | 4.5 nM | 37.1 nM | –
C[C@@H]1CN(c2cc(F)c(C3=CCCN(C(=O)OC4(C)CCC4)C3)c(F)c2NC(=O)c2c[nH]c(=O)cc2C(F)F)C[C@H](C)N1C [Example 22, 1-Methylcyclobutyl 5-(3-(4-(difluoromethyl)-6-oxo-1,6-dihydropyridine-3-carboxamido)-2,6-difluoro-4-((3S,5R)-3,4,5-trimethylpiperazin-1-yl)phenyl)-3,6-dihydropyridine-1(2H)-carboxylate] | 1.74 nM | 23 nM | –
CC(C)OC(=O)N1CCC=C(c2c(F)cc(N3C[C@@H](C)N(C)[C@@H](C)C3)c(NC(=O)c3c[nH]c(=O)cc3C(F)F)c2F)C1 [Example 23, Isopropyl 5-(3-(4-(difluoromethyl)-6-oxo-1,6-dihydropyridine-3-carboxamido)-2,6-difluoro-4-((3S,5R)-3,4,5-trimethylpiperazin-1-yl)phenyl)-3,6-dihydropyridine-1(2H)-carboxylate] | 2.83 nM | 31.4 nM | –
C[C@@H]1CN(c2ncc(-c3ccc(N4C[C@@H](C)N(C)[C@@H](C)C4)c(NC(=O)c4c[nH]c(=O)cc4C(F)(F)F)c3)cn2)C[C@H](C)O1 [reference compound] | – | – | 2.9 nM
C[C@@H]1CN(c2ncc(-c3cc(F)c(N4C[C@@H](C)N(C)[C@@H](C)C4)c(NC(=O)c4c[nH]c(=O)cc4C(F)(F)F)c3)cn2)C[C@H](C)O1 [reference compound] | – | – | 48 nM
C[C@@H]1CN(c2ncc(-c3ccc(N4C[C@@H](C)N(C)[C@@H](C)C4)c(NC(=O)c4c[nH]c(=O)cc4C(F)(F)F)c3F)cn2)C[C@H](C)O1 [reference compound] | – | – | 1.8 nM
